For orientation: refractive index means a measure of how strongly the sample bends light.

SMILES strings stand for the structures. ± gives the expanded uncertainty stated by the source.

The series is described as follows: refractive index (Na D-line) (dimensionless). As to conditions: 298.15 K; 101.33 kPa; Liquid; Abbe refractometer.
With `Cc1ccccc1C` [1,2-dimethylbenzene], the refractive index is on record as 1.5018 ± 0.0005.
Turning to `Cc1cccc(C)c1` [1,3-dimethylbenzene], the refractive index is recorded as 1.4943 ± 0.0005.
As to `Cc1ccc(C)cc1` [1,4-dimethylbenzene], the refractive index came to 1.4925 ± 0.0005.
Consider `c1ccccc1` [benzene], for which the refractive index is 1.499 ± 0.0004.
As to `CCCCCCCCCCCC` [dodecane], the refractive index is 1.4275 ± 0.0005.
Consider `CCCCCCCCCCCCCCCC` [hexadecane], for which the refractive index was 1.4325 ± 0.0005.
The value for `CCCCCC` [hexane] was 1.3728 ± 0.0005.
For `Cc1ccccc1` [toluene], the refractive index amounted to 1.494 ± 0.0004.
